In general, Km refers to the concentration of substrate that gives half-maximal velocity.

These results are taken from patent publication US4061540A, “Cholesterol oxidaze and process for preparing same” (Kikkoman Shoyu Co., Ltd., priority 1975, dated 1977).

For data set [1], the system named is cholesterol oxidase. Put plainly: Action and substrate specificity: relative activity by hydrogen peroxide formation (peroxidase/4-aminoantipyrine/phenol, absorbance at 500 nm). The data set is classed as biochemical, Corynebacterium cholesterolicum. The protocol: All the above-mentioned values of relative activity (%) refer to the relative amounts of hydrogen peroxide formed from the substances oxidized by cholesterol oxidase, where the activity to cholesterol is taken as 100. The activity was measured by the following procedure.
A substrate solution was prepared by mixing 50 microliter of a 0.38 micromolar solution of cholesterol in isopropanol with 3 milliliter of 0.1 M phosphate buffer (pH 7.0; it contains 0.82 millimoles of 4-aminoantipyrine, 14 millimoles of phenol, 0.17 millimoles of Carbowax 6000 and 0.3% Triton X-100). The resulting substrate solution was incubated for 5 minutes in a cell of light path, 10 mm, kept at 37° C.
50 microliter of an enzyme solution containing 2.5 U of peroxidase and 0.1 U of cholesterol oxidase was added. The increase in absorbance at 500 nm was measured at 37° C. The initial velocity was obtained from the increase in absorbance, from which the relative activity was computed. [Literature: Charles C. Allain, Lucy S. Poon, Cicely G. Chan, W. Richmond and Paul C. Fu, Clin. Chem. 20, 470 (1974)].

The test system of data set [2] is cholesterol oxidase. Kind of data set: Km value by the ultraviolet absorption method. The data set is classed as biochemical, Corynebacterium cholesterolicum. The protocol:
(§1) Enzymatic activity was measured by ultraviolet absorption method [Clin. Chem. 20, 470 (1974)]. A substrate solution was prepared by dissolving 5 ml of a 300 mg/dl solution of cholesterol in isopropanol into 300 ml of phosphate buffer (pH 7.0) containing 0.05% of Triton X-100. 20 microliter of enzyme solution was added to 3.0 ml of the substrate solution, and the resulting mixture was reacted at 37° C for 15 minutes. Increase in the absorption at 240 nm, assignable to cholest-4-en-3-one resulting from the reaction, was measured.

In data set [3] the test system is cholesterol oxidase. Kind of data set: Inhibition of the enzyme. The data set is classed as biochemical, Corynebacterium cholesterolicum.
Data set [4] in a line: Relative activities of various enzymes exhibited to pregnenolone and cholesterol. The data set is classed as biochemical. The conditions noted are these: ratio of activity to pregnenolone over cholesterol; source of values for known enzymes not stated. The source says:
This enzyme oxidizes the hydroxyl group of steroids at […], and exerts no action upon other position of hydroxyl groups, such as 3α, 17β, etc., nor upon ester groups.

Data set [5] can be described thus: Optimum pH and optimum temperature for the action of the enzyme. The data set is classed as biochemical. The protocol: The optimum pH is in the vicinity of 7.0 when the substrate is cholesterol.
When the reaction time is 15 minutes, the optimum temperature is 40° C.
as §1

The format of data set [6] is physicochemical. The conditions noted are these: treated at 30° C for 1 hour. The protocol:
It keeps stable in the pH range of 5-9 when treated at 30° C for 1 hour.

Data set [7] can be described thus: Isoelectric point by isoelectric focusing. The conditions noted are these: pH, carrier ampholyte pH 3-10, 900 V, 50 hours, 4° C. The data set is classed as physicochemical. As to the method:
The enzyme has an isoelectric point of pH 8.7, as measured by the method of isoelectric focusing. Thus, 10 mg of a purified enzyme was introduced into a 110 ml column packed with a carried ampholyte kept at pH 3-10 [LKB-Producter, commercial name of a product manufactured by AB Co.; cf. Biochem. Biophys. Acta, 133, 435 (1967)]. An electric current was passed at a voltage of 900 V for a period of 50 hours, while the column was cooled to 4° C.

Where [8] appears, read: relative amounts of hydrogen peroxide formed, activity to cholesterol taken as 100, initial velocity, 37° C, pH 7.0.

As for `C[C@]12CC[C@H](O)CC1=CC[C@@H]1[C@@H]2CC[C@]2(C)C(=O)CC[C@@H]12` [Dehydro-epiandrosterone], the “Relative activity (%)” value in data set [1] (setting [8]) is 57%.

As to `C[C@]12CC[C@@H](O)C[C@@H]1CC[C@@H]1[C@@H]2CC[C@]2(C)C(=O)CC[C@@H]12` [Androsterone], the “Relative activity (%)” value in data set [1] (pH 7) is given as 0%.

For the compound `C[C@]12CC[C@H]3[C@@H](CCC4=CC(=O)CC[C@@]43C)[C@@H]1CC[C@@H]2O` [Testosterone], the “Relative activity (%)” value in data set [1] (setting [8]) is reported as 0%.

In the case of `C[C@]12CC[C@@H]3c4ccc(O)cc4CC[C@H]3[C@@H]1CC[C@@H]2O` [β-Estradiol], the “Relative activity (%)” value in data set [1] (setting [8]) stood at 0%.

As for `CC(=O)[C@H]1CC[C@H]2[C@@H]3CC=C4C[C@@H](O)CC[C@]4(C)[C@H]3CC[C@]12C` [Pregnenolone], the “Relative activity (%)” value in data set [1] (setting [8]) was determined as 416%. Moreover, in data set [2], the Km worked out at 31 µM.

As for `O=C(O)c1cc[c]([Hg][Cl])cc1` [p-chloromercuribenzoate], the “Inhibition of the enzyme (in words)” value in data set [3] was “inhibited”.

With `C[C@@H]1CC[C@@]2(OC1)O[C@H]1C[C@H]3[C@@H]4CC=C5C[C@@H](O)CC[C@]5(C)[C@H]4CC[C@]3(C)[C@H]1[C@@H]2C` [Diosgenin], the “Relative activity (%)” value in data set [1] (setting [8]) is listed as 0%.

Consider `O=C(O)CN(CCN(CC(=O)O)CC(=O)O)CC(=O)O` [EDTA], for which the “Inhibition of the enzyme (in words)” value in data set [3] is given as “not inhibited”.

Regarding `C[C@]12CC[C@H](O)C[C@H]1CC[C@@H]1[C@@H]2CC[C@]2(C)[C@@H](C3=CC(=O)OC3)CC[C@]12O` [Digitoxigenin], the “Relative activity (%)” value in data set [1] (setting [8]) is 0%.

With `CC[C@H](/C=C/[C@@H](C)[C@H]1CC[C@H]2[C@@H]3CC=C4C[C@@H](O)CC[C@]4(C)[C@H]3CC[C@]12C)C(C)C` [Stigmasterol], the “Relative activity (%)” value in data set [1] (setting [8]) is reported as 17%.

`CC(=O)O[C@H]1CC[C@@]2(C)C(=CC[C@H]3[C@@H]4CC[C@H]([C@H](C)CCCC(C)C)[C@@]4(C)CC[C@@H]32)C1` [Cholesterol acetate]: the “Relative activity (%)” value in data set [1] (setting [8]) came to 0%.

`Oc1cccc2cccnc12` [8-hydroxyquinoline]: the “Inhibition of the enzyme (in words)” value in data set [3] was “not inhibited”.

On to `CC[C@H](CC[C@@H](C)[C@H]1CC[C@H]2[C@@H]3CC=C4C[C@@H](O)CC[C@]4(C)[C@H]3CC[C@]12C)C(C)C` [β-Sitosterol], for which, in data set [1] (setting [8]), the “Relative activity (%)” value is reported as 54%.

Take `C=C1CC[C@H](O)C/C1=C/C=C1\CCC[C@]2(C)[C@@H]([C@H](C)CCCC(C)C)CC[C@@H]12` [Vitamin D3]: the “Relative activity (%)” value in data set [1] (setting [8]) amounted to 0%.

Regarding cholesterol oxidase, in data set [4], the “relative activities exhibited to pregnenolone and cholesterol” value was 4.16. Moreover, the “optimum temperature for the action” value in data set [5] (reaction time 15 minutes) worked out at 40 °C. Further, in data set [5] (substrate is cholesterol), the “Optimum pH” value is approximately 7.0. In data set [6], the “pH range in which it keeps stable” value is 5-9. In addition, the isoelectric point in data set [7] is 8.7.

In the case of `C[C@H](CCC(=O)O)[C@H]1CC[C@H]2[C@@H]3[C@H](O)C[C@@H]4C[C@H](O)CC[C@]4(C)[C@H]3C[C@H](O)[C@]12C` [Cholic acid], the “Relative activity (%)” value in data set [1] (setting [8]) is 0%.

Regarding `CC(C)CCC[C@@H](C)[C@H]1CC[C@H]2[C@@H]3CC[C@H]4C[C@@H](O)CC[C@]4(C)[C@H]3CC[C@]12C` [β-Cholestanol], the “Relative activity (%)” value in data set [1] (setting [8]) was found to be 43%.

Take `[Hg+2]` [Hg^2+]: the “Inhibition of the enzyme (in words)” value in data set [3] was “inhibited”.

For the compound `CC(C)CCC[C@@H](C)[C@H]1CC[C@H]2[C@@H]3CC=C4C[C@@H](O)CC[C@]4(C)[C@H]3CC[C@]12C` [Cholesterol], the “Relative activity (%)” value in data set [1] (setting [8]) amounted to 100%. Moreover, in data set [2], the Michaelis-Menten constant (Km) is 54 µM.

Take `CC(C)[C@@H](C)/C=C/[C@@H](C)[C@H]1CC[C@H]2C3=CC=C4C[C@@H](O)CC[C@]4(C)[C@H]3CC[C@]12C` [Ergosterol]: the “Relative activity (%)” value in data set [1] (setting [8]) was 13%.

Consider `c1cnc2c(c1)ccc1cccnc12` [o-phenanthroline], for which, in data set [3], the “Inhibition of the enzyme (in words)” value is “not inhibited”.

Regarding `[Ag+]` [Ag^+], in data set [3], the “Inhibition of the enzyme (in words)” value is on record as “inhibited”.
